Results on 10 molecules are retold here after patent US8680012B2, “4-phenyl-pyrane-3,5-diones,4-phenyl-thiopyrane-3,6-diones and cyclohexanetriones as novel herbicides” (Syngenta Crop Protection LLC, priority 2006, dated 2014).

Common to all, as to assay type: in vivo
In test [1] the test system is Echinochloa crus-galli (ECHCG). In words: Example B post-emergence herbicidal activity, glasshouse pot test. As to conditions: 312 h, evaluated after 13 days, read-out: Post-emergence activity ECHCG (100=total damage to plant; 0=no damage to plant); for pest or weed control at 1000 g/ha: rate 1000 g/ha; for pest or weed control at 250 g/ha: rate 250 g/ha. The method, boiled down:
(§1)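 Glasshouse pot assay: 24/16 °C, 14 h light, 65% humidity, twice-daily watering. Spray timing was 1 day after sowing (pre) or 8 days (post); vehicle acetone/water 50:50 with 0.5% Tween 20. Plants were rated 13 days after treatment, 100 meaning total damage.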

For test [2], the system named is Solanum nigrum (SOLNI). The description is as above. The following applies: 312 h, evaluated after 13 days, read-out: Post-emergence activity SOLNI (100=total damage to plant; 0=no damage to plant); for pest or weed control at 1000 g/ha: rate 1000 g/ha; for pest or weed control at 250 g/ha: rate 250 g/ha. The method, boiled down:
as §1

In test [3] the test system is Alopecurus myosuroides (ALOMY). The description is as above. As to conditions: 312 h, evaluated after 13 days, read-out: Post-emergence activity ALOMY (100=total damage to plant; 0=no damage to plant); for pest or weed control at 1000 g/ha: rate 1000 g/ha; for pest or weed control at 250 g/ha: rate 250 g/ha. The essentials:
as §1

For test [4], the system named is Avena fatua (AVEFA). The description is as above. As to conditions: 312 h, evaluated after 13 days, read-out: Post-emergence activity AVEFA (100=total damage to plant; 0=no damage to plant); for pest or weed control at 1000 g/ha: rate 1000 g/ha; for pest or weed control at 250 g/ha: rate 250 g/ha. The essentials:
as §1

The test system of test [5] is Setaria faberi (SETFA). Described as above. The following applies: 312 h, evaluated after 13 days, read-out: Post-emergence activity SETFA (100=total damage to plant; 0=no damage to plant); for pest or weed control at 1000 g/ha: rate 1000 g/ha; for pest or weed control at 250 g/ha: rate 250 g/ha. The method, boiled down:
as §1

The subject of test [6] is Amaranthus retroflexus (AMARE). Described as above. As to conditions: 312 h, evaluated after 13 days, read-out: Post-emergence activity AMARE (100=total damage to plant; 0=no damage to plant); for pest or weed control at 1000 g/ha: rate 1000 g/ha; for pest or weed control at 250 g/ha: rate 250 g/ha. The method, boiled down:
as §1

Test [7] has as its system Echinochloa crus-galli (ECHCG). In words: Example B pre-emergence herbicidal activity, glasshouse pot test. The following applies: 312 h, evaluated after 13 days, read-out: Pre-emergence activity ECHCG (100=total damage to plant; 0=no damage to plant); for pest or weed control at 1000 g/ha: rate 1000 g/ha; for pest or weed control at 250 g/ha: rate 250 g/ha. The method, boiled down: as §1

The test system of test [8] is Solanum nigrum (SOLNI). The description is as above. The following applies: 312 h, evaluated after 13 days, read-out: Pre-emergence activity SOLNI (100=total damage to plant; 0=no damage to plant); for pest or weed control at 1000 g/ha: rate 1000 g/ha; for pest or weed control at 250 g/ha: rate 250 g/ha. The method, boiled down:
as §1

The test system of test [9] is Alopecurus myosuroides (ALOMY). The description is as above. The following applies: 312 h, evaluated after 13 days, read-out: Pre-emergence activity ALOMY (100=total damage to plant; 0=no damage to plant); for pest or weed control at 1000 g/ha: rate 1000 g/ha; for pest or weed control at 250 g/ha: rate 250 g/ha. The essentials:
as §1

Test [10] concerns Avena fatua (AVEFA). The test is described as above. As to conditions: 312 h, evaluated after 13 days, read-out: Pre-emergence activity AVEFA (100=total damage to plant; 0=no damage to plant); for pest or weed control at 1000 g/ha: rate 1000 g/ha; for pest or weed control at 250 g/ha: rate 250 g/ha. The essentials:
as §1

Test [11] concerns Setaria faberi (SETFA). Described as above. As to conditions: 312 h, evaluated after 13 days, read-out: Pre-emergence activity SETFA (100=total damage to plant; 0=no damage to plant); for pest or weed control at 1000 g/ha: rate 1000 g/ha; for pest or weed control at 250 g/ha: rate 250 g/ha. The essentials: as §1
Test [12] relates to Amaranthus retroflexus (AMARE). The description is as above. The following applies: 312 h, evaluated after 13 days, read-out: Pre-emergence activity AMARE (100=total damage to plant; 0=no damage to plant); for pest or weed control at 1000 g/ha: rate 1000 g/ha; for pest or weed control at 250 g/ha: rate 250 g/ha. The essentials:
as §1

Take `Cc1ccc(-c2ccc(Cl)nc2C)cc1C1=C(O)C(C)(C)C(=O)C(C)(C)C1=O` [Compound B-6]: the pest or weed control at 1000 g/ha in [1] amounted to 50%; with Solanum nigrum (SOLNI) [2], 0%; in test [3] it was 20%; in the test on Avena fatua (AVEFA) [4], 0%; in the test with Setaria faberi (SETFA) [5] it was 30%; in test [6], 0%. In addition, the pest or weed control at 1000 g/ha in test [7] was 0%; in the test with Solanum nigrum (SOLNI) [8] it was 90%; in test [9], 0%; in the test on Avena fatua (AVEFA) [10], 0%; with Setaria faberi (SETFA) [11], 0%; in test [12], 100%.
For `Cc1ccc(-c2ccc(Cl)c(F)c2)cc1C1=C(O)C(C)(C)C(=O)C(C)(C)C1=O` [Compound B-23], the pest or weed control at 250 g/ha in [1] turned out to be 60%; in the test on Solanum nigrum (SOLNI) [2] it was 0%; in [3], 30%; in the test with Avena fatua (AVEFA) [4] it was 0%; in the test with Setaria faberi (SETFA) [5] it was 70%; in test [6] it was 0%. Further, the pest or weed control at 250 g/ha was found to be 10% in test [7]; 0% with Solanum nigrum (SOLNI) [8]; 0% in test [9]; 0% in the test with Avena fatua (AVEFA) [10]; 0% in the test with Setaria faberi (SETFA) [11]; 0% in test [12].
`Cc1ccc(-c2ccc(Cl)nc2C)cc1C1=C(O)C(C)(C)OC(C)(C)C1=O` [Compound A-56]: the pest or weed control at 1000 g/ha in [1] worked out at 80%; in the test on Solanum nigrum (SOLNI) [2] it was 20%; in [3], 80%; in the test on Avena fatua (AVEFA) [4], 50%; with Setaria faberi (SETFA) [5], 80%; in [6], 20%. The pest or weed control at 1000 g/ha in test [7] was 30%; in the test with Solanum nigrum (SOLNI) [8] it was 20%; in test [9], 10%; in the test on Avena fatua (AVEFA) [10] it was 40%; in the test with Setaria faberi (SETFA) [11], 0%; in [12], 0%.
For the molecule `CCc1ccc(-c2ccc(Cl)cc2)cc1C1=C(OC(C)=O)C(C)(C)OC(C)(C)C1=O` [Compound D-7], the pest or weed control at 1000 g/ha was found to be 100% in test [1]; 0% in the test on Solanum nigrum (SOLNI) [2]; 90% in [3]; 70% in the test on Avena fatua (AVEFA) [4]; 100% with Setaria faberi (SETFA) [5]; 0% in test [6]. Further, the pest or weed control at 1000 g/ha in test [7] is 90%; in the test on Solanum nigrum (SOLNI) [8], 0%; in [9], 60%; in the test on Avena fatua (AVEFA) [10] it was 30%; with Setaria faberi (SETFA) [11] it was 100%; in [12], 0%.
Take `CCc1ccc(-c2ccc(Cl)cc2)cc1C1=C(OC(=O)OCC(C)C)C(C)(C)OC(C)(C)C1=O` [Compound D-14]: the pest or weed control at 1000 g/ha in test [1] came to 100%; in the test on Solanum nigrum (SOLNI) [2] it was 0%; in test [3], 20%; in the test with Avena fatua (AVEFA) [4], 10%; in the test with Setaria faberi (SETFA) [5], 100%; in [6], 0%. In addition, the pest or weed control at 1000 g/ha in [7] came out at 60%; in the test with Solanum nigrum (SOLNI) [8] it was 0%; in test [9] it was 50%; in the test on Avena fatua (AVEFA) [10], 20%; in the test on Setaria faberi (SETFA) [11] it was 90%; in [12] it was 0%.
Take `CCc1ccc(-c2ccc(Cl)c(C#N)c2)cc1C1=C(O)C(C)(C)C(=O)C(C)(C)C1=O` [Compound B-27]: the pest or weed control at 250 g/ha in test [1] worked out at 80%; in the test with Solanum nigrum (SOLNI) [2], 0%; in test [3], 70%; with Avena fatua (AVEFA) [4] it was 0%; with Setaria faberi (SETFA) [5] it was 60%; in test [6], 0%. Moreover, the pest or weed control at 250 g/ha (in test [7]; with Solanum nigrum (SOLNI) [8]; in test [9]; in the test on Avena fatua (AVEFA) [10]; in the test with Setaria faberi (SETFA) [11]; in test [12]) was 0% in each case.
`CCOc1ccc(-c2ccc(Cl)cc2Cl)cc1C1=C(O)C(C)(C)OC(C)(C)C1=O` [Compound A-87]: the pest or weed control at 250 g/ha was 80% in test [1]; 10% in [3]; 0% in the test with Avena fatua (AVEFA) [4]; 80% in the test on Setaria faberi (SETFA) [5]; 0% in [6]; 0% in test [7]. Besides, the pest or weed control at 250 g/ha (in test [9]; with Avena fatua (AVEFA) [10]; in the test with Setaria faberi (SETFA) [11]; in test [12]) was 0% each time.
With `CCc1ccc(-c2ccc(Cl)c(Cl)c2)cc1C1=C(O)[C@H]2CC[C@H](O2)C1=O` [Compound A-132], the pest or weed control at 250 g/ha was 70% in [1]; 20% in test [3]; 30% in the test on Avena fatua (AVEFA) [4]; 90% with Setaria faberi (SETFA) [5]; 0% in test [6]; 0% in test [7]. For the same molecule, the pest or weed control at 250 g/ha (in test [9]; with Avena fatua (AVEFA) [10]; in the test on Setaria faberi (SETFA) [11]; in test [12]) was 0% in each case.
Regarding `CC1(C)OC(C)(C)C(O)=C(c2cc(-c3ccc(Cl)cc3)ccc2Cl)C1=O` [Compound A-142], the pest or weed control at 250 g/ha in test [1] was found to be 100%; in test [3], 100%; with Avena fatua (AVEFA) [4], 80%; in the test on Setaria faberi (SETFA) [5], 80%; in test [6] it was 0%; in [7], 70%. Moreover, the pest or weed control at 250 g/ha in test [9] stood at 60%; with Avena fatua (AVEFA) [10], 70%; in the test on Setaria faberi (SETFA) [11], 100%; in test [12], 0%.
With `Cc1ccc(-c2c(Cl)cc(Cl)cc2Cl)cc1C1=C(O)C(C)(C)OC(C)(C)C1=O` [Compound A-60], the pest or weed control at 250 g/ha amounted to 80% in [1]; 20% in test [3]; 0% with Avena fatua (AVEFA) [4]; 80% in the test on Setaria faberi (SETFA) [5]; 60% in [6]; 20% in test [7]. Further, the pest or weed control at 250 g/ha came to 0% in test [9], 0% with Avena fatua (AVEFA) [10], 20% with Setaria faberi (SETFA) [11] and 0% in test [12].
